Measurements: patent US11453669B2, “Polycyclic pyridone derivative” (Shionogi & Co., Ltd., priority 2018, dated 2022)
Where two headings read alike, the source gives them in different places.

How the values were obtained:
[1] = type: in vitro ADME; settings: human, 30 min, 0.5 μmol/L, pH 7.4
Description: Using commercially available pooled human liver microsomes, a compound of the present invention was reacted for a constant time, and a remaining rate was calculated by comparing a reacted sample and an unreacted sample, thereby, a degree at which the compound of the present invention was metabolized in liver was assessed.
A reaction was performed (oxidative reaction) at 37° C. for 0 minute or 30 minutes in the presence of 1 mmol/L NADPH in 0.2 mL of a buffer solution (50 mmol/L Tris-HCl pH 7.4, 150 mmol/L potassium chloride, 10 mmol/L magnesium chloride) containing 0.5 mg protein/mL of human liver microsomes. After the reaction, 50 μL of the reaction solution was added to 100 μL of a solution of methanol/acetonitrile=1/1 (v/v), and the mixture was mixed and centrifuged at 3000 rpm for 15 minutes. The compound of the present invention in the centrifugation supernatant was quantified by LC/MS/MS or solid-phase extraction (SPE)/MS. The amount of the compound of the present invention remaining after the reaction was calculated with the amount of the compound at 0 minutes of the reaction defined as 100%.

[2] = target: T1, Voltage gated sodium channel (Nav1.5 channel) encoded by SCN5A gene (Homo sapiens, UniProt Q14524); experiment: Nav test (QPatch whole cell patch clamp); type: cell-based; settings: HEK cells expressing Nav1.5, applied 5 minutes or more, room temperature
T1 construct: expressed in transfected cells; host or cells: HEK cells
T1 sequence (Q14524 whole entry): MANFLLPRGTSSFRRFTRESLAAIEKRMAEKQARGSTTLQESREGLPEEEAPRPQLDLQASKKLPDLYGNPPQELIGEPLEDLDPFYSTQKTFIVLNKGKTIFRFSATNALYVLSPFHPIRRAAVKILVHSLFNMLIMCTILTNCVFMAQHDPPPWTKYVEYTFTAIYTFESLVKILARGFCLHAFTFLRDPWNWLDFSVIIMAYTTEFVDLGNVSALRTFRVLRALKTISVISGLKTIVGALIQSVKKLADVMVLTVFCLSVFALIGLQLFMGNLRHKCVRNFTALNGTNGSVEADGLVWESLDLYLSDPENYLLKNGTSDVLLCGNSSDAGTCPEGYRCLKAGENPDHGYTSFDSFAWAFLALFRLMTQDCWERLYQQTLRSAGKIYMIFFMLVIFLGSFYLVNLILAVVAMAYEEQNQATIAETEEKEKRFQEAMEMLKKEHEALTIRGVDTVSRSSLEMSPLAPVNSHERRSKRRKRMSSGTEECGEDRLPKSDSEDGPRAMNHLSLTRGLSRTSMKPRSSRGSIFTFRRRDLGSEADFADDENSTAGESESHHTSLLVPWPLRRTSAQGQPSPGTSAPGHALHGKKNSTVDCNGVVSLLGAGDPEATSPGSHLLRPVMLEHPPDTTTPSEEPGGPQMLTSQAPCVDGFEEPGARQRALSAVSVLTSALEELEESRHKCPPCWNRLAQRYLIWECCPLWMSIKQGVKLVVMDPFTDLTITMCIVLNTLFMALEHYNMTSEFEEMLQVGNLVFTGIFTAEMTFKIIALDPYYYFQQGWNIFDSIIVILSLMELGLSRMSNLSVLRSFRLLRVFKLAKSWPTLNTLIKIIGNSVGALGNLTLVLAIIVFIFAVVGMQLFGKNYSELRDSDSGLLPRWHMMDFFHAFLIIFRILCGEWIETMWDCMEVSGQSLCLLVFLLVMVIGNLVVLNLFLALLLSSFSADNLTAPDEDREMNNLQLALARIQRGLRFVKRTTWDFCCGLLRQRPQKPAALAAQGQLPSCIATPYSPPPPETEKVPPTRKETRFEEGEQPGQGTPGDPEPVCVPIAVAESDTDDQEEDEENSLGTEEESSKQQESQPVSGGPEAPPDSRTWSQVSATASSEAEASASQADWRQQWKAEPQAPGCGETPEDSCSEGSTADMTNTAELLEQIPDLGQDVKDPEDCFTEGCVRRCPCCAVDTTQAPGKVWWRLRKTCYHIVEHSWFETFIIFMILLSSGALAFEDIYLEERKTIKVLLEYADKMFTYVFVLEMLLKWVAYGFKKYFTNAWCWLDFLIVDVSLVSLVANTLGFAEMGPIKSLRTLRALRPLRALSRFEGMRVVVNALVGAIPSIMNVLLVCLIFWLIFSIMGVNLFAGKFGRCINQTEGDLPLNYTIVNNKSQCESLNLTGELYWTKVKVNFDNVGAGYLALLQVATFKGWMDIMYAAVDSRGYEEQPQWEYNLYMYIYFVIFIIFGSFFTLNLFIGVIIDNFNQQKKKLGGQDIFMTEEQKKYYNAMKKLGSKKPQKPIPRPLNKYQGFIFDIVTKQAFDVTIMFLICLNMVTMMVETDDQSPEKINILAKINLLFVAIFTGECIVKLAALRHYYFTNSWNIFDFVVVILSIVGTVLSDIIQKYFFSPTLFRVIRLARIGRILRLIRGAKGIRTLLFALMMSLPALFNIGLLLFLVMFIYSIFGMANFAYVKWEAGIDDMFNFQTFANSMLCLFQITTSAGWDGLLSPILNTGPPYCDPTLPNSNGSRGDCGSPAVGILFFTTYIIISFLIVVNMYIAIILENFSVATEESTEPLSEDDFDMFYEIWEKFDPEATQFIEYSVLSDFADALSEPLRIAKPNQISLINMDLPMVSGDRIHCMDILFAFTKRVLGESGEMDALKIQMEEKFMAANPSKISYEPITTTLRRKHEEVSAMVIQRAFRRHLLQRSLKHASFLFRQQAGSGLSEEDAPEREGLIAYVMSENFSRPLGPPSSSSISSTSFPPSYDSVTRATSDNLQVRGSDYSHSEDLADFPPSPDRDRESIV
Description: A cell was retained at a membrane potential of −100 mV by whole cell patch clamp method using a fully automated patch clamp system (QPatch; Sophion Bioscience A/S), and INa induced by depolarization pulse stimulation at −10 mV for 20 ms was recorded. […] The extracellular solution in which the medium and the compound of the present invention had been dissolved at each objective concentration was applied to the cell for 5 minutes or more under conditions of room temperature.

HIV = experiment: Anti-HIV activity (MT-4 cells, MTT); type: cell-based; settings: Human immunodeficiency virus 1, MT4, 96 h, read-out: EC50_nM (50% HIV inhibitory concentration)
Description: Serial dilutions of a test sample were prepared in a 96-well microplate (50 μL/well). 2.5×10^5 cells/mL of an MT-4 cell suspension was dispensed at 100 μL/well to the plate containing the test sample. Then, an HIV virus solution was dispensed at 50 μL/well. The plate was mixed with a plate mixer and cultured for 4 days in a CO2 incubator. An MTT (3-(4,5-dimethylthiazol-2-yl)-2,5-diphenyltetrazolium bromide) solution was dispensed at 30 μL/well. The plate was reacted for 1 hour in a CO2 incubator. 150 μL of the supernatant was removed from each well so as not to take up the cells. 150 μL of a cell lysis solution was added to each well and well mixed with a plate mixer until the cells were completely lysed. The absorbance of the mixed plate was measured at two wavelengths of 560 nm and 690 nm using a microplate reader.

[3] = tested on: HIV mutant strain 1 (E138K/G140S/Q148H/N155H); type: cell-based; settings: FC=EC50 of the mutant strain/EC50 of the wild strain, HeLa-CD4 cells
Description: (§1) Serial dilutions of a test sample were prepared in a 96-well microplate (50 μL/well). 2.5×10^5 cells/mL of a HeLa-CD4 cell suspension was dispensed at 100 μL/well to the plate containing the test sample. Then, an HIV virus solution (wild strain and mutant strain) was dispensed at 50 μL/well. The plate was mixed with a plate mixer and cultured for 3 days in a CO2 incubator. The culture supernatant in each well was removed by suction. A cell lysis buffer in a reporter assay kit was dispensed at 100 μL/well, and the plate was frozen in a freezer (−80° C.). The plate frozen in a freezer was thawed at room temperature, then mixed with a plate mixer, and centrifuged at 1,200 rpm for 5 minutes. The supernatant of each well was dispensed at 20 μL/well to a 96-well microplate (BLACK). A chemiluminescent in the reporter assay kit reagent was dispensed at 100 μL/well and reacted at room temperature for approximately 1 hour. Then, luminescence intensity was measured using MicroBeta TRILUX.

[4] = tested on: HIV mutant strain 2 (E92Q/E138T/G140S/Q148H); type: cell-based; settings: FC=EC50 of the mutant strain/EC50 of the wild strain, HeLa-CD4 cells
Description: as §1

[5] = Clearance evaluation test (rat, intravenous); type: in vivo; settings: plasma, 1 umol/kg, rats, intravenous 1 μmol/kg; for half-life: read-out: elimination half-life (t½) (converted); for clearance: read-out: total body clearance (CLtot)
Excerpt: Experimental Material and Method
(1) Animals used: rats were used.
(2) Rearing conditions: the rats were allowed to freely take solid feed and sterilized tap water.
(3) Dose and grouping setting: a given dose was intravenously administered. Groups were set as follows:
Intravenous administration: 1 μmol/kg (n=2)
(4) Preparation of dosing solution: the test sample was solubilized using a solvent of dimethyl sulfoxide/propylene glycol=1/1 and administered.
(5) Administration method: the test sample was administered to the tail vein through a syringe with an injection needle.
(6) Evaluation item: blood was collected over time, and the concentration of the compound of the present invention in plasma was measured using LC/MS/MS.
(7) Statistical analysis: total body clearance (CLtot) and elimination half-life (t½) were calculated as to change in the concentration of the compound of the present invention in plasma by the moment analysis method.

| Structure (SMILES) | residual rate [1] | ratio of maximum peak current (INa) with compound relative to medium [2] [%] | EC50 (HIV) [nM] | FC (fold change) for mutant strain 1 [3] | FC (fold change) for mutant strain 2 [4] | half-life [5] [min] | clearance [5] [mL/h/kg] | EC50 (HIV; MT-4 cells, cultured 4 days, MTT) [nM] |
| --- | --- | --- | --- | --- | --- | --- | --- | --- |
| C[C@H]1CC[C@H]2N(C)C(=O)c3c(O)c(=O)c(-c4nnc(Cc5ccc(F)cc5F)s4)cn3N2C1 [II-041] | 95.5 | 78.8 | 0.25 | 5.8 | 8 | – | – | – |
| CCN1C(=O)c2c(O)c(=O)c(-c3nnc(Cc4ccc(F)cc4F)s3)cn2N2CC[C@@H](C)C[C@@H]12 [II-033] | – | 90.7 | – | – | – | – | – | – |
| CN1C(=O)c2c(O)c(=O)c(-c3nnc(Cc4ccc(F)cc4F)s3)cn2N2CCCC[C@@H]12 [II-003] | 109 | 96.7 | 0.62 | 8.8 | 12 | – | – | – |
| CCN1C(=O)c2c(O)c(=O)c(-c3nnc(Cc4c(F)cc(F)cc4F)s3)cn2N2C[C@@H](C)C[C@@H]12 [II-027] | 90.5 | – | 1.9 | 4.7 | 7 | – | – | – |
| CCN1C(=O)c2c(O)c(=O)c(-c3nnc(Cc4c(F)cc(F)cc4F)s3)cn2N2[C@H](C)CCC[C@@H]12 [II-044] | 88.5 | – | 1.4 | 11 | 26 | – | – | – |
| CN1C(=O)c2c(O)c(=O)c(-c3nnc(Cc4c(F)cc(F)cc4F)s3)cn2N2C[C@@H]3CC[C@@H](C3)[C@@H]12 [II-063] | 96.5 | – | 0.6 | 14 | 12 | – | – | – |
| CCN1C(=O)c2c(O)c(=O)c(-c3nnc(Cc4c(F)cc(F)cc4F)s3)cn2N2CCOC[C@@H]12 [II-018] | 95.3 | 109 | 0.52 | 15 | 20 | – | – | – |
| CCN1C(=O)c2c(O)c(=O)c(-c3nnc(Cc4ccc(F)cc4)s3)cn2N2C[C@@H]3CC[C@@H](O3)[C@@H]12 [II-050] | 103 | – | 0.66 | 20 | 29 | – | – | – |
| CN1C(=O)c2c(O)c(=O)c(-c3nnc(Cc4ccc(F)cc4F)s3)cn2N2C[C@@H]3CC[C@@H](C3)[C@@H]12 [II-055] | 93.9 | – | 0.14 | 15 | 11 | – | – | – |
| CCN1C(=O)c2c(O)c(=O)c(-c3nnc(Cc4cc(F)c(F)cc4F)s3)cn2N2CCCC[C@@H]12 [Compound I-012] | 72.2 | 97.1 | 4.8 | 23 | 46 | – | – | – |
| CCN1C(=O)c2c(O)c(=O)c(-c3nnc(Cc4ccc(F)cc4)s3)cn2N2[C@H](COC)CC[C@@H]12 [II-038] | 92.4 | 86.2 | 0.13 | 20 | 31 | – | – | – |
| CCN1C(=O)c2c(O)c(=O)c(-c3nnc(Cc4c(F)cc(F)cc4F)s3)cn2N2C[C@@H]3CC[C@@H](C3)[C@@H]12 [II-052] | 83.4 | – | 0.66 | 2.3 | 3.5 | – | – | – |
| C[C@@H]1CC[C@H]2N(C)C(=O)c3c(O)c(=O)c(-c4nnc(Cc5ccc(F)cc5F)s4)cn3N12 [II-029] | 85.3 | – | 0.66 | 7.2 | 6.5 | – | – | – |
| CC(C)N1C(=O)c2c(O)c(=O)c(-c3nnc(Cc4c(F)cc(F)cc4F)s3)cn2N2C[C@@H]3CC[C@@H](O3)[C@@H]12 [II-054] | 98.8 | – | 1 | 3.5 | 8.2 | – | – | – |
| CCN1C(=O)c2c(O)c(=O)c(-c3nnc(Cc4c(F)cc(F)cc4F)s3)cn2N2CC[C@H](C)C[C@@H]12 [II-061] | 91.5 | – | 1.8 | 5.1 | 7.3 | – | – | – |
| C[C@@H]1CCC[C@H]2N(C)C(=O)c3c(O)c(=O)c(-c4nnc(Cc5ccc(F)cc5F)s4)cn3N12 [II-043] | 103 | – | 3.5 | 6.8 | 11 | – | – | – |
| CCN1C(=O)c2c(O)c(=O)c(-c3cnn(Cc4ncc(Cl)cc4F)c3)cn2N2CCCC[C@@H]12 [II-013] | – | – | – | – | – | 2120 | 1.36 | 32 |
| CN1C(=O)c2c(O)c(=O)c(-c3nnc(Cc4cccc(Cl)c4F)s3)cn2N2CCOC[C@@H]12 [II-069] | 102 | – | 0.24 | 30 | 25 | – | – | – |
| CCN1C(=O)c2c(O)c(=O)c(-c3nnc(Cc4ccc(F)cc4F)s3)cn2N2[C@H](COC)CC[C@@H]12 [II-024] | 96.5 | 89.3 | 0.13 | 8.2 | 11 | 1420 | 2.18 | – |
| CCN1C(=O)c2c(O)c(=O)c(-c3nnc(Cc4c(F)cc(F)cc4F)s3)cn2N2C[C@@H]3CC[C@@H](O3)[C@@H]12 [II-046] | 97.2 | – | 0.6 | 17 | 20 | – | – | – |
| CCN1C(=O)c2c(O)c(=O)c(-c3nnc(Cc4ccc(F)cc4F)s3)cn2N2C[C@@H](C)CC[C@@H]12 [II-067] | 93 | – | 0.3 | 5.2 | 5.1 | – | – | – |
